# Results published in US10793564B2, “Amino acid compounds and methods of use” (Pliant Therapeutics, Inc., priority 2018, dated 2020).
# Molecular target: recombinant human integrin αVβ6 (Homo sapiens (Human), UniProt P06756+P18564)
# Assay: Solid phase integrin αVβ6 binding assay
# Details: inhibition of recombinant TGFβ1 LAP binding to coated integrin, IC50 presented in four ranges, read-out: αvβ6 Inhibition IC50 (nM) - range
# Description: (§1) Microplates were coated with recombinant human integrin αVβ6 (2 μg/mL) in PBS (100 μL/well 25° C., overnight). The coating solution was removed, washed with wash buffer (0.05% Tween 20; 0.5 mM MnCl2; in 1×TBS). The plate was blocked with 200 μL/well of Block Buffer (1% BSA; 5% sucrose; 0.5 mM MnCl2; in 1×TBS) at 37° C. for 2 h. Dilutions of testing compounds and recombinant TGFβ1 LAP (0.67 μg/mL) in binding buffer (0.05% BSA; 2.5% sucrose; 0.5 mM MnCl2; in 1×TBS) were added. The plate was incubated for 2 hours at 25° C., washed, and incubated for 1 hour with Biotin-Anti-hLAP. Bound antibody was detected by peroxidase-conjugated streptavidin. The IC50 values for testing compounds were calculated by a four-parameter logistic regression.
# The compounds tested were compound samples prepared according to procedures described in the Synthetic Examples section, with the stereochemical purity as indicated in the Examples.
# as §1, with “A third series of exemplary compounds was selected for testing in the solid phase integrin αVβ6 binding assay. The compounds tested were compound samples prepared according to procedures described in the Synthetic Examples section, with the stereochemical purity as indicated in the Examples. As in Example B1, microplates were” for “Microplates were”, “(0.67 g/mL)” for “(0.67 μg/mL)”
# Chain of recombinant human integrin αVβ6 (P06756 31-992): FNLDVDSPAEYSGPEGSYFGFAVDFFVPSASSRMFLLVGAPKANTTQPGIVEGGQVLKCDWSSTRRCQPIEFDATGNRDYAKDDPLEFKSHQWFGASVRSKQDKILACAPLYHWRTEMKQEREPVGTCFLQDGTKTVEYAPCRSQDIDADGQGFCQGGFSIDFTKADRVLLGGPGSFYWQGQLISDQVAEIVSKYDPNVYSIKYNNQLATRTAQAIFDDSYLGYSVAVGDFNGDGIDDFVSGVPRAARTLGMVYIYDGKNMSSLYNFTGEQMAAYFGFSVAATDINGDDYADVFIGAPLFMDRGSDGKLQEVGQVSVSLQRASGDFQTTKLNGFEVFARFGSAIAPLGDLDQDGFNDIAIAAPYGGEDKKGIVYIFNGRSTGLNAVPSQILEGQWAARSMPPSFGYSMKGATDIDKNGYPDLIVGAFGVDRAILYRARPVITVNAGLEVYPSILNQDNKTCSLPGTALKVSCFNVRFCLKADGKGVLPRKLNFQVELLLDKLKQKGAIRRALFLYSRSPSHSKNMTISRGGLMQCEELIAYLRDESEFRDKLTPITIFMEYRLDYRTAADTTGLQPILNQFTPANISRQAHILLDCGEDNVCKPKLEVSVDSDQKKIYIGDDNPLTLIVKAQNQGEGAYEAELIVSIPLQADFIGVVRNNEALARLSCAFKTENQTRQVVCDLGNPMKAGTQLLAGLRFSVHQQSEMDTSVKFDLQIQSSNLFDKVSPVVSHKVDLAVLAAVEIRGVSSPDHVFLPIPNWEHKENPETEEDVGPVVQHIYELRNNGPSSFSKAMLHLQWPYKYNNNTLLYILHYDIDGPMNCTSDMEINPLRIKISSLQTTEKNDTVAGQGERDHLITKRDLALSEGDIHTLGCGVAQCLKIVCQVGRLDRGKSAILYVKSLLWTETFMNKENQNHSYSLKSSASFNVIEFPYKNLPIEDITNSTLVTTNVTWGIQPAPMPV
# Chain of recombinant human integrin αVβ6 (P18564 22-707): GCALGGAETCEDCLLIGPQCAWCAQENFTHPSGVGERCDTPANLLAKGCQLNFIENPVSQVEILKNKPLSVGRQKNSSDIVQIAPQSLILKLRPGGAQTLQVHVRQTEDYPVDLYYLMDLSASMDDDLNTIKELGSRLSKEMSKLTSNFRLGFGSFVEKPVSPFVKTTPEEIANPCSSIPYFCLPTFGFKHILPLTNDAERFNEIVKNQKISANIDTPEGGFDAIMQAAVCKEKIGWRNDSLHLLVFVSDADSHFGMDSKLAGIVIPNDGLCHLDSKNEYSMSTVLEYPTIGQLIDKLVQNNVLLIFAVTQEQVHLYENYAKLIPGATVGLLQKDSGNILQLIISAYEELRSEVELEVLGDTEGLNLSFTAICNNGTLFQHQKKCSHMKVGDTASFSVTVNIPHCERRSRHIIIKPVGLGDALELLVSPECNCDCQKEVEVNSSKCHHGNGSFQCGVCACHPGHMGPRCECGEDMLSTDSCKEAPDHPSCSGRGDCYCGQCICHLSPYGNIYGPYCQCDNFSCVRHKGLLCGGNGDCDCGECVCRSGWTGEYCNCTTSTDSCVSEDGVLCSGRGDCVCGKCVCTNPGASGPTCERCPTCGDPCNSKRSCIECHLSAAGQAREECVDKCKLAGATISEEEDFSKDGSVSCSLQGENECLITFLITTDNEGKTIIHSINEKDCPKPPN
row,SMILES,IC50
1,"Cc1cc(N[C@@H](CCN(CCCCc2ccc3c(n2)NCCC3)CC(F)F)C(=O)O)nc(-c2ccncc2)n1 [Compound 122, (S)-4-((2,2-difluoroethyl) (4-(5,6,7,8-tetrahydro-1,8-naphthyridin-2-yl)butyl)amino)-2-((6-methyl-2-(pyridin-4-yl)pyrimidin-4-yl)amino) butanoic Acid]",250 to 1000 nM
2,"COCCN(CCCCc1ccc2c(n1)NCCC2)CC[C@H](Nc1ncnc2cc(C(F)(F)F)ccc12)C(=O)O [Compound 13, (S)-4-((2-methoxyethyl) (4-(5,6,7,8-tetrahydro-1,8-naphthyridin-2-yl)butyl)amino)-2-((7-(trifluoromethyl)quinazolin-4-yl)amino) butanoic Acid]",50 to 250 nM
3,"O=C(O)[C@H](CCN(CCCCc1ccc2c(n1)NCCC2)CC(F)F)Nc1cc(-n2cccn2)ncn1 [Compound 98, (S)-2-((6-(1H-pyrazol-1-yl)pyrimidin-4-yl)amino)-4-((2,2-difluoroethyl) (4-(5,6,7,8-tetrahydro-1,8-naphthyridin-2-yl)butyl)amino) butanoic Acid]",> 1000 nM
4,"O=C(O)[C@H](CCN(CCCCc1ccc2c(n1)NCCC2)CCOc1ccc(F)cc1)Nc1ncc(Br)cn1 [Compound 144, (S)-2-((5-bromopyrimidin-2-yl)amino)-4-((2-(4-fluorophenoxy)ethyl) (4-(5,6,7,8-tetrahydro-1,8-naphthyridin-2-yl)butyl)amino) butanoic Acid]",50 to 250 nM
5,"COC[C@@H](F)CN(CCCCc1ccc2c(n1)NCCC2)CC[C@H](Nc1ncnc2ccccc12)C(=O)O [Compound 31, (S)-4-(((S)-2-fluoro-3-methoxypropyl) (4-(5,6,7,8-tetrahydro-1,8-naphthyridin-2-yl)butyl)amino)-2-(quinazolin-4-ylamino) butanoic Acid]",< 50 nM
6,"CO[C@H](C)CN(CCCCc1ccc2c(n1)NCCC2)CC[C@H](Nc1ncc(Br)cn1)C(=O)O [Compound 70, (S)-2-((5-bromopyrimidin-2-yl)amino)-4-(((R)-2-methoxypropyl) (4-(5,6,7,8-tetrahydro-1,8-naphthyridin-2-yl)butyl)amino) butanoic Acid]",< 50 nM
7,"COCCN(CCCCc1ccc2c(n1)NCCC2)CC[C@H](Nc1ccnc(C(F)(F)F)n1)C(=O)O [Compound 24, (S)-4-((2-methoxyethyl) (4-(5,6,7,8-tetrahydro-1,8-naphthyridin-2-yl)butyl)amino)-2-((2-(trifluoromethyl)pyrimidin-4-yl)amino) butanoic Acid]",< 50 nM
8,"CO[C@H](C)CN(CCCCc1ccc2c(n1)NCCC2)CC[C@H](Nc1ncnc2ccccc12)C(=O)O [Compound 62, (S)-4-(((R)-2-methoxypropyl) (4-(5,6,7,8-tetrahydro-1,8-naphthyridin-2-yl)butyl)amino)-2-(quinazolin-4-ylamino) butanoic Acid]",< 50 nM
9,"O=C(O)[C@H](CCN(CCCCc1ccc2c(n1)NCCC2)CCOc1ccc(F)cc1)Nc1ncc(C(F)(F)F)cn1 [Compound 139, (S)-4-((2-(4-fluorophenoxy)ethyl) (4-(5,6,7,8-tetrahydro-1,8-naphthyridin-2-yl)butyl)amino)-2-((5-(trifluoromethyl)pyrimidin-2-yl)amino) butanoic Acid]",< 50 nM
10,"O=C(O)[C@H](CCN(CCCF)CCCCc1ccc2c(n1)NCCC2)Nc1ncc(C(F)(F)F)cn1 [Compound 137, (S)-4-((3-fluoropropyl) (4-(5,6,7,8-tetrahydro-1,8-naphthyridin-2-yl)butyl)amino)-2-((5-(trifluoromethyl)pyrimidin-2-yl)amino) butanoic Acid]",< 50 nM
11,"COCCN(CCCCc1ccc2c(n1)NCCC2)CC[C@H](Nc1ncnc2c(Cl)cccc12)C(=O)O [Compound 38, (S)-2-((8-chloroquinazolin-4-yl)amino)-4-((2-methoxyethyl) (4-(5,6,7,8-tetrahydro-1,8-naphthyridin-2-yl)butyl)amino) butanoic Acid]",< 50 nM
12,"O=C(O)[C@H](CCN(CCCCc1ccc2c(n1)NCCC2)CC(F)F)Nc1ncc(C(F)(F)F)cn1 [Compound 95, (S)-4-((2,2-difluoroethyl) (4-(5,6,7,8-tetrahydro-1,8-naphthyridin-2-yl)butyl)amino)-2-((5-(trifluoromethyl)pyrimidin-2-yl)amino) butanoic Acid]",> 1000 nM
13,"CN(C)C(=O)CN(CCCCc1ccc2c(n1)NCCC2)CC[C@H](Nc1ncnc2ccccc12)C(=O)O [Compound 64, (S)-4-((2-(dimethylamino)-2-oxoethyl) (4-(5,6,7,8-tetrahydro-1,8-naphthyridin-2-yl)butyl)amino)-2-(quinazolin-4-ylamino) butanoic Acid]",< 50 nM
14,"N#Cc1cnc(N[C@@H](CCN(CCCCc2ccc3c(n2)NCCC3)CCOc2ccccc2)C(=O)O)nc1 [Compound 111, (S)-2-((5-cyanopyrimidin-2-yl)amino)-4-((2-phenoxyethyl) (4-(5,6,7,8-tetrahydro-1,8-naphthyridin-2-yl)butyl)amino) butanoic Acid]",< 50 nM

# Further lines, results first:
row,IC50,SMILES
1,< 50 nM,"CO[C@H](C)CN(CCCCc1ccc2c(n1)NCCC2)CC[C@H](Nc1cc(-c2ccccc2)ncn1)C(=O)O [Compound 80, (S)-4-(((R)-2-methoxypropyl) (4-(5,6,7,8-tetrahydro-1,8-naphthyridin-2-yl)butyl)amino)-2-((6-phenylpyrimidin-4-yl)amino) butanoic Acid]"
2,< 50 nM,"O=C(O)[C@H](CCN(CCCCc1ccc2c(n1)NCCC2)CCOc1cncc(F)c1)Nc1ncnc2ccccc12 [Compound 58, (S)-4-((2-((5-fluoropyridin-3-yl)oxy)ethyl) (4-(5,6,7,8-tetrahydro-1,8-naphthyridin-2-yl)butyl)amino)-2-(quinazolin-4-ylamino) butanoic Acid]"
3,< 50 nM,"COCCN(CCCCc1ccc2c(n1)NCCC2)CC[C@H](Nc1ncnc2cc(F)c(F)cc12)C(=O)O [Compound 21, (S)-2-((6,7-difluoroquinazolin-4-yl)amino)-4-((2-methoxyethyl) (4-(5,6,7,8-tetrahydro-1,8-naphthyridin-2-yl)butyl)amino) butanoic Acid]"
4,< 50 nM,"Cc1cc(C)n(CCN(CCCCc2ccc3c(n2)NCCC3)CC[C@H](Nc2ncnc3ccccc23)C(=O)O)n1 [Compound 45, (S)-4-((2-(3,5-dimethyl-1H-pyrazol-1-yl)ethyl) (4-(5,6,7,8-tetrahydro-1,8-naphthyridin-2-yl)butyl)amino)-2-(quinazolin-4-ylamino) butanoic Acid]"
5,< 50 nM,"Cc1nc(N[C@@H](CCN(CCCCc2ccc3c(n2)NCCC3)CCOC2CC2(F)F)C(=O)O)c2ccc(F)cc2n1 (stereo partly drawn) [Compound 42, (2S)-4-((2-(2,2-difluorocyclopropoxy)ethyl) (4-(5,6,7,8-tetrahydro-1,8-naphthyridin-2-yl)butyl)amino)-2-((7-fluoro-2-methylquinazolin-4-yl)amino) butanoic Acid]"
6,< 50 nM,"CC(=O)NCCN(CCCCc1ccc2c(n1)NCCC2)CC[C@H](Nc1ncnc2ccccc12)C(=O)O [Compound 63, (S)-4-((2-acetamidoethyl) (4-(5,6,7,8-tetrahydro-1,8-naphthyridin-2-yl)butyl)amino)-2-(quinazolin-4-ylamino) butanoic Acid]"
7,< 50 nM,"COCCN(CCCCc1ccc2c(n1)NCCC2)CC[C@H](Nc1nc(C(F)(F)F)nc2ccccc12)C(=O)O [Compound 14, (S)-4-((2-methoxyethyl) (4-(5,6,7,8-tetrahydro-1,8-naphthyridin-2-yl)butyl)amino)-2-((2-(trifluoromethyl)quinazolin-4-yl)amino) butanoic Acid]"
8,< 50 nM,"CO[C@H](C)CN(CCCCc1ccc2c(n1)NCCC2)CC[C@H](Nc1ncc(C2CC2)cn1)C(=O)O [Compound 124, (S)-2-((5-cyclopropylpyrimidin-2-yl)amino)-4-(((R)-2-methoxypropyl) (4-(5,6,7,8-tetrahydro-1,8-naphthyridin-2-yl)butyl)amino) butanoic Acid]"
9,< 50 nM,"CO[C@H](C)CN(CCCCc1ccc2c(n1)NCCC2)CC[C@H](Nc1ccnc(C(F)(F)F)n1)C(=O)O [Compound 72, (S)-4-(((R)-2-methoxypropyl) (4-(5,6,7,8-tetrahydro-1,8-naphthyridin-2-yl)butyl)amino)-2-((2-(trifluoromethyl)pyrimidin-4-yl)amino) butanoic Acid]"
10,< 50 nM,"CO[C@H](C)CN(CCCCc1ccc2c(n1)NCCC2)CC[C@H](Nc1ncnc2c1cnn2C)C(=O)O [Compound 74, (S)-4-(((R)-2-methoxypropyl) (4-(5,6,7,8-tetrahydro-1,8-naphthyridin-2-yl)butyl)amino)-2-((1-methyl-1H-pyrazolo[3,4-d]pyrimidin-4-yl)amino) butanoic Acid]"
